Data published in PubChem BioAssay (NCI).
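Exposure lasted 48 hours, with cells grown in 96-well plates and compounds tested at five concentrations. TGI: concentration producing complete growth inhibition.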

Legend:
Assay in all cases: growth of human tumour cells (NCI), 48 h
M14 melanoma = system: M14 melanoma
IGROV1 ovarian = system: IGROV1 ovarian
OVCAR-4 ovarian = system: OVCAR-4 ovarian
KM12 colon = system: KM12 colon
SK-MEL-2 melanoma = system: SK-MEL-2 melanoma
PC-3 prostate = system: PC-3 prostate
HOP-62 NSCLC = system: HOP-62 NSCLC
HOP-92 NSCLC = system: HOP-92 NSCLC
HL-60(TB) leukemia = system: HL-60(TB) leukemia
UACC-62 melanoma = system: UACC-62 melanoma
K-562 leukemia = system: K-562 leukemia
BT-549 breast = system: BT-549 breast
MDA-N = system: MDA-N
OVCAR-3 ovarian = system: OVCAR-3 ovarian
MOLT-4 leukemia = system: MOLT-4 leukemia
LOX IMVI melanoma = system: LOX IMVI melanoma
NCI-H226 lung = system: NCI-H226 lung
786-0 renal = system: 786-0 renal
UO-31 renal = system: UO-31 renal
UACC-257 melanoma = system: UACC-257 melanoma
NCI-H460 lung = system: NCI-H460 lung
NCI-H522 lung = system: NCI-H522 lung
HCT-15 colon = system: HCT-15 colon
EKVX NSCLC = system: EKVX NSCLC
MALME-3M melanoma = system: MALME-3M melanoma
SNB-19 CNS = system: SNB-19 CNS
SF-295 CNS = system: SF-295 CNS
MCF7 breast = system: MCF7 breast
U251 CNS = system: U251 CNS
SF-268 CNS = system: SF-268 CNS
COLO 205 colon = system: COLO 205 colon
SK-MEL-28 melanoma = system: SK-MEL-28 melanoma
MDA-MB-435 = system: MDA-MB-435
ACHN renal = system: ACHN renal
SR leukemia = system: SR leukemia
A498 renal = system: A498 renal
NCI-H23 lung = system: NCI-H23 lung
SW-620 colon = system: SW-620 colon
CAKI-1 renal = system: CAKI-1 renal
RXF 393 renal = system: RXF 393 renal
NCI/ADR-RES ovarian = system: NCI/ADR-RES ovarian
OVCAR-8 ovarian = system: OVCAR-8 ovarian
SF-539 CNS = system: SF-539 CNS
HCT-116 colon = system: HCT-116 colon
OVCAR-5 ovarian = system: OVCAR-5 ovarian
A549 NSCLC = system: A549 NSCLC
DU-145 prostate = system: DU-145 prostate
T-47D breast = system: T-47D breast
SN12C renal = system: SN12C renal
TK-10 renal = system: TK-10 renal
SNB-75 CNS = system: SNB-75 CNS
HT29 colon = system: HT29 colon
RPMI-8226 leukemia = system: RPMI-8226 leukemia
MDA-MB-231 breast = system: MDA-MB-231 breast
HS 578T breast = system: HS 578T breast
SK-MEL-5 melanoma = system: SK-MEL-5 melanoma
SK-OV-3 ovarian = system: SK-OV-3 ovarian
HCC-2998 colon = system: HCC-2998 colon
CCRF-CEM leukemia = system: CCRF-CEM leukemia

`CN(Cc1cc(Cl)cc(Cl)c1O)Cc1c(O)ccc2ccccc12` gave a TGI (M14 melanoma) of 39.2 µM, a TGI (IGROV1 ovarian) of 33.9 µM and a TGI (OVCAR-4 ovarian) of 38.9 µM. For the same compound, the TGI (KM12 colon) was 42.8 µM, the TGI (SK-MEL-2 melanoma) was 35.8 µM and the TGI (PC-3 prostate) was 30.7 µM. The TGI (HOP-62 NSCLC) was 38.7 µM, the TGI (HOP-92 NSCLC) was 36.5 µM and the TGI (HL-60(TB) leukemia) was 57.4 µM. It also gave a TGI (UACC-62 melanoma) of 29.3 µM, a TGI (K-562 leukemia) of 61 µM and a TGI (BT-549 breast) of 32 µM. For the same compound, the TGI (MDA-N) was 66.1 µM, the TGI (OVCAR-3 ovarian) was 35.7 µM and the TGI (MOLT-4 leukemia) was 58.3 µM. For the same compound, the TGI (LOX IMVI melanoma) was 32.8 µM, the TGI (NCI-H226 lung) was 37.7 µM and the TGI (786-0 renal) was 48.4 µM. The TGI (UO-31 renal) was 34.7 µM, the TGI (UACC-257 melanoma) was 34.6 µM and the TGI (NCI-H460 lung) was 35.1 µM. The TGI (NCI-H522 lung) was 29.6 µM, the TGI (HCT-15 colon) was 38.9 µM and the TGI (EKVX NSCLC) was 46.4 µM. The TGI (MALME-3M melanoma) was 28.9 µM, the TGI (SNB-19 CNS) was 37.9 µM and the TGI (SF-295 CNS) was 36.1 µM. The TGI (MCF7 breast) was 33.2 µM, the TGI (U251 CNS) was 30.4 µM and the TGI (SF-268 CNS) was 28.2 µM. The TGI (COLO 205 colon) was 32 µM, the TGI (SK-MEL-28 melanoma) was 37.3 µM and the TGI (MDA-MB-435) was 41.4 µM. It also gave a TGI (ACHN renal) of 31 µM, a TGI (SR leukemia) of 68.2 µM and a TGI (A498 renal) of 31 µM. It also gave a TGI (NCI-H23 lung) of 33.5 µM, a TGI (SW-620 colon) greater than 100 µM and a TGI (CAKI-1 renal) of 33.8 µM. For the same compound, the TGI (RXF 393 renal) was 33.6 µM, the TGI (NCI/ADR-RES ovarian) was 42.5 µM and the TGI (OVCAR-8 ovarian) was 39.2 µM. It also gave a TGI (SF-539 CNS) of 38.5 µM, a TGI (HCT-116 colon) of 58.7 µM and a TGI (OVCAR-5 ovarian) of 52.5 µM. It also gave a TGI (A549 NSCLC) of 62.3 µM, a TGI (DU-145 prostate) of 46.2 µM and a TGI (T-47D breast) of 43 µM. For the same compound, the TGI (SN12C renal) was 43.7 µM, the TGI (TK-10 renal) was 31.1 µM and the TGI (SNB-75 CNS) was 33.3 µM. The TGI (HT29 colon) was greater than 100 µM, the TGI (RPMI-8226 leukemia) was 73.1 µM and the TGI (MDA-MB-231 breast) was 32.2 µM. The TGI (HS 578T breast) was 44.4 µM, the TGI (SK-MEL-5 melanoma) was 32 µM and the TGI (SK-OV-3 ovarian) was 36.8 µM.

Compound `COc1ccc2cc(-c3nc(N)nc(N4N=C(C)CC4(C)C)n3)c(=N)oc2c1` has a TGI (M14 melanoma) of 38.1 µM, a TGI (IGROV1 ovarian) of 37.8 µM and a TGI (OVCAR-4 ovarian) of 50.5 µM. The TGI (KM12 colon) was 30.6 µM, the TGI (SK-MEL-2 melanoma) was 35.7 µM and the TGI (PC-3 prostate) was 39.2 µM. It also gave a TGI (HOP-62 NSCLC) of 41.6 µM, a TGI (HOP-92 NSCLC) of 60.5 µM and a TGI (HL-60(TB) leukemia) of 43.9 µM. For the same compound, the TGI (UACC-62 melanoma) was 36.3 µM, the TGI (K-562 leukemia) was 40.2 µM and the TGI (BT-549 breast) was 48.1 µM. It also gave a TGI (MDA-N) of 33.5 µM, a TGI (OVCAR-3 ovarian) of 28.5 µM and a TGI (HCC-2998 colon) of 32.6 µM. For the same compound, the TGI (MOLT-4 leukemia) was 33.7 µM, the TGI (NCI-H226 lung) was 40.6 µM and the TGI (786-0 renal) was 36.3 µM. For the same compound, the TGI (UO-31 renal) was 55.1 µM, the TGI (CCRF-CEM leukemia) was 41.4 µM and the TGI (UACC-257 melanoma) was 95.7 µM. It also gave a TGI (NCI-H460 lung) of 35.6 µM, a TGI (NCI-H522 lung) of 27.8 µM and a TGI (HCT-15 colon) of 32 µM. For the same compound, the TGI (EKVX NSCLC) was 67.2 µM, the TGI (MALME-3M melanoma) was 32.7 µM and the TGI (SNB-19 CNS) was 40.1 µM. It also gave a TGI (SF-295 CNS) of 33.2 µM, a TGI (MCF7 breast) of 44.2 µM and a TGI (U251 CNS) of 41.9 µM. For the same compound, the TGI (SF-268 CNS) was 33.8 µM, the TGI (COLO 205 colon) was 30.8 µM and the TGI (SK-MEL-28 melanoma) was 31.8 µM. For the same compound, the TGI (MDA-MB-435) was 42.1 µM, the TGI (ACHN renal) was 31.8 µM and the TGI (SR leukemia) was 32.1 µM. It also gave a TGI (A498 renal) of 82.1 µM, a TGI (NCI-H23 lung) of 31.8 µM and a TGI (CAKI-1 renal) of 38 µM. The TGI (RXF 393 renal) was 58.9 µM, the TGI (NCI/ADR-RES ovarian) was greater than 100 µM and the TGI (OVCAR-8 ovarian) was 49.8 µM. It also gave a TGI (SF-539 CNS) of 30.2 µM, a TGI (HCT-116 colon) of 35 µM and a TGI (OVCAR-5 ovarian) of 41.3 µM. The TGI (A549 NSCLC) was greater than 100 µM, the TGI (DU-145 prostate) was 32.6 µM and the TGI (T-47D breast) was 38.9 µM. It also gave a TGI (SN12C renal) of 51.7 µM, a TGI (TK-10 renal) of 72 µM and a TGI (HT29 colon) of 31.7 µM. It also gave a TGI (RPMI-8226 leukemia) of 36.6 µM, a TGI (MDA-MB-231 breast) of 44.8 µM and a TGI (HS 578T breast) of 66.4 µM. The TGI (SK-MEL-5 melanoma) was 30.1 µM and the TGI (SK-OV-3 ovarian) was 53.9 µM.

With `COc1ccc(/C=C2\CCC/C(=C\c3ccc(O)c(CN4CCCCC4)c3)C2=O)cc1` the TGI (M14 melanoma) was 35.3 µM, the TGI (IGROV1 ovarian) was 41.5 µM and the TGI (OVCAR-4 ovarian) was greater than 79.5 µM. For the same compound, the TGI (SK-MEL-2 melanoma) was 43 µM, the TGI (PC-3 prostate) was 42.7 µM and the TGI (HOP-62 NSCLC) was greater than 56.3 µM. The TGI (HOP-92 NSCLC) was 51.6 µM, the TGI (HL-60(TB) leukemia) was greater than 100 µM and the TGI (UACC-62 melanoma) was 36.1 µM. It also gave a TGI (K-562 leukemia) greater than 100 µM, a TGI (BT-549 breast) of 37.7 µM and a TGI (MDA-N) of 37.2 µM. The TGI (OVCAR-3 ovarian) was 46.3 µM, the TGI (HCC-2998 colon) was 33.4 µM and the TGI (MOLT-4 leukemia) was 40.7 µM. The TGI (LOX IMVI melanoma) was 26.1 µM, the TGI (NCI-H226 lung) was 45.8 µM and the TGI (786-0 renal) was 19.3 µM. It also gave a TGI (UO-31 renal) of 39.9 µM, a TGI (CCRF-CEM leukemia) greater than 100 µM and a TGI (UACC-257 melanoma) of 40.4 µM. For the same compound, the TGI (NCI-H460 lung) was 44.8 µM, the TGI (NCI-H522 lung) was 19.1 µM and the TGI (HCT-15 colon) was 36 µM. For the same compound, the TGI (EKVX NSCLC) was 51.7 µM, the TGI (MALME-3M melanoma) was 49 µM and the TGI (SNB-19 CNS) was 70.2 µM. For the same compound, the TGI (SF-295 CNS) was 36.4 µM, the TGI (MCF7 breast) was 28.5 µM and the TGI (U251 CNS) was 33.9 µM. It also gave a TGI (SF-268 CNS) of 13.1 µM, a TGI (COLO 205 colon) of 46.9 µM and a TGI (SK-MEL-28 melanoma) of 42.2 µM. The TGI (MDA-MB-435) was 39.6 µM, the TGI (ACHN renal) was greater than 82.7 µM and the TGI (SR leukemia) was 19.8 µM. For the same compound, the TGI (A498 renal) was 47.1 µM, the TGI (NCI-H23 lung) was 41.3 µM and the TGI (SW-620 colon) was 28.8 µM. For the same compound, the TGI (CAKI-1 renal) was greater than 74.6 µM, the TGI (RXF 393 renal) was 41 µM and the TGI (NCI/ADR-RES ovarian) was 32.8 µM. It also gave a TGI (OVCAR-8 ovarian) of 13.6 µM, a TGI (SF-539 CNS) of 16.1 µM and a TGI (HCT-116 colon) of 13.1 µM. For the same compound, the TGI (OVCAR-5 ovarian) was 61.3 µM, the TGI (A549 NSCLC) was 52.8 µM and the TGI (DU-145 prostate) was 36.9 µM. It also gave a TGI (T-47D breast) greater than 73.8 µM, a TGI (SN12C renal) of 36.5 µM and a TGI (TK-10 renal) of 52.1 µM. The TGI (SNB-75 CNS) was greater than 71.8 µM, the TGI (HT29 colon) was 19.9 µM and the TGI (RPMI-8226 leukemia) was greater than 43.8 µM. It also gave a TGI (MDA-MB-231 breast) of 35.2 µM, a TGI (HS 578T breast) greater than 100 µM and a TGI (SK-MEL-5 melanoma) of 39.5 µM. The TGI (SK-OV-3 ovarian) was 40.7 µM.
